Experiments:
Type in all cases: in vivo
[1] = tested on: sedge, umbrella (small-flower umbrella sedge, Cyperus difformis); assay: Test B flooded paddy test; conditions: Cyperus difformis, 360 h, Flood, 250 g ai/ha; visually evaluated after 13 to 15 d; read-out: Plant response rating, Sedge, Umbrella (0 to 100 scale where 0 is no effect and 100 is complete control)
Method in brief: (§1)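 Plants at 2-leaf stage flooded to 3 cm above soil, with compounds applied directly to paddy water and that depth maintained. Plants kept in greenhouse 13–15 d. Visual rating versus controls on a 0 (no effect) to 100 (complete control) scale.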

rice (Oryra sativa) = assay: Test B flooded paddy test; conditions: Oryza sativa, 360 h, Flood, 250 g ai/ha; visually evaluated after 13 to 15 d; read-out: Plant response rating, Rice (0 to 100 scale where 0 is no effect and 100 is complete control)
Method in brief: as §1

[2] = tested on: barnyardgrass (Echinochloa crus-galli); assay: Test B flooded paddy test; conditions: Echinochloa crus-galli, 360 h, Flood, 250 g ai/ha; visually evaluated after 13 to 15 d; read-out: Plant response rating, Barnyardgrass (0 to 100 scale where 0 is no effect and 100 is complete control)
Method in brief: as §1

[3] = tested on: ducksalad (Heteranthera limosa); assay: Test B flooded paddy test; conditions: Heteranthera limosa, 360 h, Flood, 250 g ai/ha; visually evaluated after 13 to 15 d; read-out: Plant response rating, Ducksalad (0 to 100 scale where 0 is no effect and 100 is complete control)
Method in brief: as §1

[4] = tested on: ryegrass, Italian (Italian ryegrass, Lolium multiflorum); assay: Test A preemergence; conditions: Lolium multiflorum, pre-emergence, 240 h, Preemergence
Method in brief: (§2)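 Seeded soil received test chemicals as a preemergence directed spray, and seedlings at one to two leaves, 2–10 cm tall, received them postemergence, in a non-phytotoxic, surfactant-containing solvent mixture. Pots were held in a greenhouse for approximately 10 d, then rated for injury from 0, no effect, to 100, complete control.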

[5] = tested on: giant foxtail (Setaria faberii); assay: Test A preemergence; conditions: Setaria faberi, pre-emergence, 240 h, Preemergence
Method in brief: as §2

[6] = tested on: pigweed (Amaranthus retroflexus); assay: Test A preemergence; conditions: Amaranthus retroflexus, pre-emergence, 240 h, Preemergence
Kochia (Kochia scoparia) [7] = assay: Test A preemergence; conditions: Bassia scoparia, pre-emergence, 240 h, Preemergence
Method in brief: as §2

[8] = tested on: barnyardgrass (Echinochloa crus-galli); assay: Test A preemergence; conditions: Echinochloa crus-galli, pre-emergence, 240 h, Preemergence
Method in brief: as §2

[9] = tested on: ragweed (common ragweed, Ambrosia elatior); assay: Test A preemergence; conditions: Ambrosia artemisiifolia, pre-emergence, 240 h, Preemergence
Method in brief: as §2

[10] = tested on: ryegrass, Italian (Italian ryegrass, Lolium multiflorum); assay: Test A postemergence; conditions: Lolium multiflorum, post-emergence, 240 h, Postemergence, read-out: Ryegrass, Italian plant response rating (0 to 100 scale)
Method in brief: as §2

[11] = tested on: wheat (Triticum aestivum); assay: Test A postemergence; conditions: Triticum aestivum, post-emergence, 240 h, Postemergence, read-out: Wheat plant response rating (0 to 100 scale)
Method in brief: as §2

[12] = tested on: giant foxtail (Setaria faberii); assay: Test A postemergence; conditions: Setaria faberi, post-emergence, 240 h, Postemergence, read-out: Foxtail, Giant plant response rating (0 to 100 scale)
Method in brief: as §2

[13] = tested on: Galium (catchweed bedstraw, Galium aparine); assay: Test A postemergence; conditions: Galium, post-emergence, 240 h, Postemergence, read-out: Galium plant response rating (0 to 100 scale)
Method in brief: as §2

[14] = tested on: pigweed (Amaranthus retroflexus); assay: Test A postemergence; conditions: Amaranthus retroflexus, post-emergence, 240 h, Postemergence, read-out: Pigweed plant response rating (0 to 100 scale)
Method in brief: as §2

corn (Zea mays) = assay: Test A postemergence; conditions: Zea mays, post-emergence, 240 h, Postemergence, read-out: Corn plant response rating (0 to 100 scale)
Method in brief: as §2

Kochia (Kochia scoparia) [15] = assay: Test A postemergence; conditions: Bassia scoparia, post-emergence, 240 h, Postemergence, read-out: Kochia plant response rating (0 to 100 scale)
Method in brief: as §2

[16] = tested on: blackgrass (Alopecurus myosuroides); assay: Test A postemergence; conditions: Alopecurus myosuroides, post-emergence, 240 h, Postemergence, read-out: Blackgrass plant response rating (0 to 100 scale)
Method in brief: as §2

[17] = tested on: barnyardgrass (Echinochloa crus-galli); assay: Test A postemergence; conditions: Echinochloa crus-galli, post-emergence, 240 h, Postemergence
Method in brief: as §2

[18] = tested on: ragweed (common ragweed, Ambrosia elatior); assay: Test A postemergence; conditions: Ambrosia artemisiifolia, post-emergence, 240 h, Postemergence, read-out: Ragweed plant response rating (0 to 100 scale)
Method in brief: as §2

[19] = 125 g ai/ha, visual rating about 10 d after treatment
[20] = 31 g ai/ha, 0 is no effect, 100 is complete control

## COc1c([C@H]2CN(C)C(=O)[C@@H]2C(=O)Nc2ccccc2SC)cccc1C(F)(F)F [Compound 1340]
[1]
  pest or weed control at 250 g/ha: 0%
Rice (Oryra sativa)
  pest or weed control at 250 g/ha: 20%
[2]
  pest or weed control at 250 g/ha: 40%
[3]
  pest or weed control at 250 g/ha: 80%
[4]; 31 g ai/ha, 0 to 100 scale where 0 is no effect and 100 is complete control, read-out: Ryegrass, Italian plant response rating
  pest or weed control at 31 g/ha: 0%
[4]; 125 g ai/ha, 0 to 100 scale (0 no effect, 100 complete control), read-out: Plant response rating, Ryegrass, Italian
  pest or weed control at 125 g/ha: 0%
[5]; 31 g ai/ha, 0 to 100 scale where 0 is no effect and 100 is complete control, read-out: Foxtail, Giant plant response rating
  pest or weed control at 31 g/ha: 40%
[5]; 125 g ai/ha, 0 to 100 scale (0 no effect, 100 complete control), read-out: Plant response rating, Foxtail, Giant
  pest or weed control at 125 g/ha: 90%
[6]; 31 g ai/ha, 0 to 100 scale where 0 is no effect and 100 is complete control, read-out: Pigweed plant response rating
  pest or weed control at 31 g/ha: 0%
[6]; 125 g ai/ha, 0 to 100 scale (0 no effect, 100 complete control), read-out: Plant response rating, Pigweed
  pest or weed control at 125 g/ha: 20%
Kochia (Kochia scoparia) [7]; 31 g ai/ha, 0 to 100 scale where 0 is no effect and 100 is complete control, read-out: Kochia plant response rating
  pest or weed control at 31 g/ha: 0%
Kochia (Kochia scoparia) [7]; 125 g ai/ha, 0 to 100 scale (0 no effect, 100 complete control), read-out: Plant response rating, Kochia
  pest or weed control at 125 g/ha: 0%
[8]; 31 g ai/ha, 0 to 100 scale where 0 is no effect and 100 is complete control, read-out: Barnyardgrass plant response rating
  pest or weed control at 31 g/ha: 90%
[8]; 125 g ai/ha, 0 to 100 scale (0 no effect, 100 complete control), read-out: Plant response rating, Barnyardgrass
  pest or weed control at 125 g/ha: 90%
[9]; 31 g ai/ha, 0 to 100 scale where 0 is no effect and 100 is complete control, read-out: Ragweed plant response rating
  pest or weed control at 31 g/ha: 0%
[9]; 125 g ai/ha, 0 to 100 scale (0 no effect, 100 complete control), read-out: Plant response rating, Ragweed
  pest or weed control at 125 g/ha: 0%
[10]; [19]
  pest or weed control at 125 g/ha: 0%
[10]; [20]
  pest or weed control at 31 g/ha: 0%
[11]; [19]
  plant injury at 125 g/ha: 0%
[11]; [20]
  plant injury at 31 g/ha: 0%
[12]; [19]
  pest or weed control at 125 g/ha: 50%
[12]; [20]
  pest or weed control at 31 g/ha: 0%
[13]; [19]
  pest or weed control at 125 g/ha: 20%
[13]; [20]
  pest or weed control at 31 g/ha: 0%
[14]; [19]
  pest or weed control at 125 g/ha: 0%
[14]; [20]
  pest or weed control at 31 g/ha: 0%
Corn (Zea mays); [19]
  plant injury at 125 g/ha: 20%
Corn (Zea mays); [20]
  plant injury at 31 g/ha: 0%
Kochia (Kochia scoparia) [15]; [19]
  pest or weed control at 125 g/ha: 20%
Kochia (Kochia scoparia) [15]; [20]
  pest or weed control at 31 g/ha: 0%
[16]; [19]
  pest or weed control at 125 g/ha: 0%
[16]; [20]
  pest or weed control at 31 g/ha: 0%
[17]; 125 g ai/ha, visual rating about 10 d after treatment, read-out: Barnyardgrass plant response rating (0 to 100 scale, 0 no effect, 100 complete control)
  pest or weed control at 125 g/ha: 30%
[17]; 31 g ai/ha, 0 is no effect, 100 is complete control, read-out: Barnyardgrass plant response rating (0 to 100 scale)
  pest or weed control at 31 g/ha: 20%
[18]; [19]
  pest or weed control at 125 g/ha: 0%
[18]; [20]
  pest or weed control at 31 g/ha: 0%

Source: patent publication US12077503B2, “Substituted cyclic amides and their use as herbicides” (FMC CORPORATION, priority 2015, dated 2024)
